Measurements taken from US12233100B1, “Composition for improving respiratory health of companion animals” (priority 2024, dated 2025).

System: IgE
Assay: IgE content in the serum (ELISA)
Format: in vivo
Conditions: positive control group, 30 mg/kg
Description: In order to measure IgE content in the serum, enzyme-linked immunosorbent assay (ELISA) (an antigen-antibody amount measurement method) kit was used. 100 μl of each of the standard solution and the serum entered each well, was reacted at 4° C. for 10 hours using a rotary agitator and then washed 4 times with a washing solution.
After completely removing the washing solution, 100 μl of a detection antibody entered each well, followed by rotational-agitation at room temperature for 1 hour and then washing the same 4 times with the washing solution. After washing, 100 μl of HRP-Streptavidin (enzyme activity and adsorption protein) solution entered each well, followed by rotational-agitation at room temperature for 45 minutes and then washing the same with 1× washing solution. Further, 100 μl of TMB One-step detection reagent entered each well, followed by rotational-agitation in a dark room for 30 minutes, and then, treatment with 50 μl of a reaction stopping reagent. Then, the absorbance was measured at […], compared to IgE standard curve to convert a content (pg/ml).

CC(C)(O)c1ccccc1CC[C@@H](SCC1(CC(=O)O)CC1)c1cccc(/C=C/c2ccc3ccc(Cl)cc3n2)c1 [monteluksat, montelukast]
IgE content in the serum: 347 pg/mL
